The compounds below were run against T1, ALK2 (Homo sapiens, UniProt Q04771) (assay: LanthaScreen Eu Kinase Binding Assay, ALK2 inhibition). Details: 1 micromolar concentration.
T1 construct: purchased ThermoFisher Scientific (Life Technologies)
T1 sequence (Q04771 21-509): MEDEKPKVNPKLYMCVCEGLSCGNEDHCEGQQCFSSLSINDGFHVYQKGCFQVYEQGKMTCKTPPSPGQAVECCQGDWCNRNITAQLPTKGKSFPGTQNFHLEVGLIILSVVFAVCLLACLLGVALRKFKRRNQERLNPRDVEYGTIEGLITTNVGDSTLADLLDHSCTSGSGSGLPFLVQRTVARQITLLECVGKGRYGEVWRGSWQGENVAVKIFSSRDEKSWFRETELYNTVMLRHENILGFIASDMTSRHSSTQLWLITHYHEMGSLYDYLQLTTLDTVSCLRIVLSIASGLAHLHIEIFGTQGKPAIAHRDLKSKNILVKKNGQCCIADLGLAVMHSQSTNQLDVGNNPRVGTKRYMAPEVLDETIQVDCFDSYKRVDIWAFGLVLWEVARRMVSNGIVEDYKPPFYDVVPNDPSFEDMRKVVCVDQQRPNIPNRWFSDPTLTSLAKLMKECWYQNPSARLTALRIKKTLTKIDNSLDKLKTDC
Protocol: Biochemical assays to measure the inhibitory effects of the compounds were performed by ThermoFisher Scientific (Life Technologies). ALK2 inhibition was tested using LanthaScreen™ Eu Kinase Binding Assay screening protocol.

inhibition at 1 µM | SMILES
> 50% | CC[C@@H](C)n1ncc2c(Nc3cn(-c4cc(OC)c(OC)c(OC)c4)cn3)nc(C(C)C)nc21 (single isomer, unassigned) [Compound 19d]
> 50% | CC[C@H](C)n1ncc2c(Nc3cn(-c4cc(OC)c(OC)c(OC)c4)cn3)nc(C(C)C)nc21 (single isomer, unassigned) [Compound 22d]
> 50% | COc1cc(-n2cnc(Nc3nc(C(C)C)nc4c3cnn4-c3ccc(F)cc3)c2)cc(OC)c1OC [Compound 1f, 1-(4-fluorophenyl)-6-isopropyl-N-(1-(3,4,5-trimethoxyphenyl)-1H-imidazol-4-yl)-1H-pyrazolo[3,4-d]pyrimidin-4-amine]
> 50% | COc1cc(-n2cnc(Nc3nc(C(C)C)nc4c3cnn4C(C)(C)C)c2)cc(OC)c1OC [Compound 2d, 1-(tert-butyl)-6-isopropyl-N-(1-(3,4,5-trimethoxyphenyl)-1H-imidazol-4-yl)-1H-pyrazolo[3,4-d]pyrimidin-4-amine]
> 50% | C=C(C)c1nc(Nc2cn(-c3cc(OC)c(OC)c(OC)c3)cn2)c2cnn(C(C)C)c2n1 [Compound 3d, 1-isopropyl-6-(prop-1-en-2-yl)-N-(1-(3,4,5-trimethoxyphenyl)-1H-imidazol-4-yl)-1H-pyrazolo[3,4-d]pyrimidin-4-amine]
> 50% | COc1cc(-n2cnc(Nc3nc(C(C)C)nc4c3cnn4C(C)C)c2)cc(OC)c1OC [Compound 4a, 1,6-diisopropyl-N-(1-(3,4,5-trimethoxyphenyl)-1H-imidazol-4-yl)-1H-pyrazolo[3,4-d]pyrimidin-4-amine]
> 50% | COc1cc(-n2cnc(Nc3nc(C=C(C)C)nc4c3cnn4C(C)C)c2)cc(OC)c1OC [Compound 5b, 1-isopropyl-6-(2-methylprop-1-en-1-yl)-N-(1-(3,4,5-trimethoxyphenyl)-1H-imidazol-4-yl)-1H-pyrazolo[3,4-d]pyrimidin-4-amine]
> 50% | COc1cc(-n2cnc(Nc3nc(CC(C)C)nc4c3cnn4C(C)C)c2)cc(OC)c1OC [Compound 6a, 6-isobutyl-1-isopropyl-N-(1-(3,4,5-trimethoxyphenyl)-1H-imidazol-4-yl)-1H-pyrazolo[3,4-d]pyrimidin-4-amine]
> 50% | COc1cc(-n2cnc(Nc3nc(C4CC4)nc4c3cnn4C(C)C)c2)cc(OC)c1OC [Compound 7e, 6-cyclopropyl-1-isopropyl-N-(1-(3,4,5-trimethoxyphenyl)-1H-imidazol-4-yl)-1H-pyrazolo[3,4-d]pyrimidin-4-amine]
> 50% | COc1cc(-n2cnc(Nc3nc(C(C)C)c4cnn(C(C)C)c4n3)c2)cc(OC)c1OC [Compound 8b, 1,4-diisopropyl-N-(1-(3,4,5-trimethoxyphenyl)-1H-imidazol-4-yl)-1H-pyrazolo[3,4-d]pyrimidin-6-amine]
> 50% | COc1cc(-n2cnc(Nc3nc(C(C)(C)C)c4cnn(C(C)C)c4n3)c2)cc(OC)c1OC [Compound 9b, 4-(tert-butyl)-1-isopropyl-N-(1-(3,4,5-trimethoxyphenyl)-1H-imidazol-4-yl)-1H-pyrazolo[3,4-d]pyrimidin-6-amine]
> 50% | COc1cc(-n2cnc(Nc3nc(C)c4cnn(C(C)C)c4n3)c2)cc(OC)c1OC [Compound 11b, 1-isopropyl-4-methyl-N-(1-(3,4,5-trimethoxyphenyl)-1H-imidazol-4-yl)-1H-pyrazolo[3,4-d]pyrimidin-6-amine]
> 50% | COc1cc(-n2cnc(Nc3nc(C4CCCCC4)c4cnn(C(C)C)c4n3)c2)cc(OC)c1OC [Compound 12b, 4-cyclohexyl-1-isopropyl-N-(1-(3,4,5-trimethoxyphenyl)-1H-imidazol-4-yl)-1H-pyrazolo[3,4-d]pyrimidin-6-amine]
> 50% | COc1cc(-n2cnc(Nc3nc(C4CC4)c4cnn(C(C)C)c4n3)c2)cc(OC)c1OC [Compound 13b, 4-cyclopropyl-1-isopropyl-N-(1-(3,4,5-trimethoxyphenyl)-1H-imidazol-4-yl)-1H-pyrazolo[3,4-d]pyrimidin-6-amine]

Source: patent publication US20240270750A1, “IMIDAZOLE-CONTAINING INHIBITORS OF ALK2 KINASE” (BioCryst Pharmaceuticals, Inc., priority 2021, published 2024)
